# Experiments:
# [1] = test system: NG108-15 cells (endogenous glutamate receptor); test: Intracellular potential recording of cultured nerve cells with C-M magnet electrode (glutamate response); assay type: cell-based; conditions: final external fluid concentration 800 μM
# Procedure: NG108-15 cells were used for the purpose of showing that recording is possible from cultured nerve cells. NG108-15 cells (neuroblastoma-glioma hybrid cells) were cultured in a culture medium containing DMEM (Sigma-Aldrich), HAT supplement (Thermofisher) and 10% FBS (Biowest). NG108-15 was seeded on a cover glass that was coated with 0.1% Polyethyleneimine (pH8.4, 150 mM Sodium Tetra-Borate (Wako)), and cultured in the culture medium, in which FBS concentration was reduced to 5% from the above culture medium, and the nerve differentiation was induced by adding 500 μM Ibuprofen (Wako). […]
# PEI and PEG-gold coated magnetic nanoparticles were mixed and left at room temperature for 3 hours. This mixed solution is moved to the cell-adhesive surface of the neodymium magnet and left for additional 15 minutes to magnetically bond the gold nanoparticles to the neodymium magnet electrode.
# The above nanoparticle-bonding magnet electrode was placed on the cultured cells placed on an iron plate. […]
# In addition to the spontaneous action potential, the following experiment was conducted to confirm whether the neuronal activity by the neurotransmitter glutamate can be recorded. […] Glutamic acid was administered to the extracellular fluid (final external fluid concentration 800 μM), and the response mediated by glutamate receptors was recorded. […]
# NG108-15 cells = test: Intracellular potential recording in differentiated cultured nerve cells with MagEle not isolated from external fluid; assay type: cell-based; conditions: 3 mM; after 20 μM Veratridine
# Procedure: In this experiment, the cultured nerve cells (NG108-15 cells) used in Example 3 were induced and differentiated into nerves under the same differentiation conditions as in the experiment example 3. In the same manner as in Example 3, the MagEle (magnet electrode) is moved from above the target cell toward the cell, and the conductive gold-coated magnetic nanoparticles adsorbed on the MagEle are adhered to the cell membrane to penetrate it. Then, the intracellular potential was measured by connecting the MagEle to the (+) pole and a conductor provided on an insulator (parafilm film) that completely covers the upper surface of the MagEle to the ground. At that time, although the insulator completely covered the top and sides of the (+) pole MagEle, the surface facing the cover glass, to which the cells adhere was not covered, and the cells were not isolated from the external fluid (FIG. 19).
# The NG108-15 cells were differentiated by culturing for 3 weeks in DMEM/HAT medium containing 2% FBS supplemented with Forskolin (10 μM).
SMILES,time for glutamate-induced membrane potential change to return to baseline ([1]; decay due to desensitization),membrane potential response mediated by glutamate receptors ([1]; neural differentiation induction for 2 days),spontaneous action potential induced by Veratridine (NG108-15 cells)
"N[C@@H](CCC(=O)O)C(=O)O [Glutamate, Glutamic acid]",about 90 seconds,depolarization (upward change) response of the membrane potential,
CCN(CC)CC(=O)Nc1c(C)cccc1C [Lidocaine],,,suppressed

# From US12247972B2 (priority 2018, dated 2025)
